The source of these data is patent US7462644B2, “Therapeutic agents” (AstraZeneca AB, priority 2002, dated 2008).

One may read the EC50 as the concentration giving half of the maximal effect. A lower EC50 goes with an effect from little substance.

Structures are written as SMILES.

The experiment addresses T1, human PPAR alpha (Homo sapiens, UniProt Q07869).
T1 sequence (Q07869 1-468): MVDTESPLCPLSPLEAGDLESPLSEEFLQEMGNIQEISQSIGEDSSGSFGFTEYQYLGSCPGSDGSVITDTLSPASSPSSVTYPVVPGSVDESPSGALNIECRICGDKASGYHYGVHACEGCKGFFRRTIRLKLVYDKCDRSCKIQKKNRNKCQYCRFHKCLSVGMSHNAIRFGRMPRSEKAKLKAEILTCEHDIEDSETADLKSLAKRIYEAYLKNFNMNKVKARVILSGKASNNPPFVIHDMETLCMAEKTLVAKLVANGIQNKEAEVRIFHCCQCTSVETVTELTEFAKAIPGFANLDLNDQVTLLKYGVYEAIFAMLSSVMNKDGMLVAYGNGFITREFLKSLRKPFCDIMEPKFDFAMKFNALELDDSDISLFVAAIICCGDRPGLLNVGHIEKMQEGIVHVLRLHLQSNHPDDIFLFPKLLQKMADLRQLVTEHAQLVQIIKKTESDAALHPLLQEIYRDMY
The experiment in a line: PPARα EC50 assay (assays described in WO03/051821). It is filed as cell-based. Here is the method: The compounds of the invention were tested in the assays described in WO03/051821.

`CCO[C@@H](Cc1ccc(OCC(=O)N(CC)Cc2ccc(C(F)(F)F)cc2)cc1)C(=O)O` [Example 4, (2S)-2-Ethoxy-3-[4-(2-{ethyl[4-(trifluoromethyl)benzyl]amino}-2-oxoethoxy)phenyl]propanoic Acid] registered an EC50 of 5 nM. Take `CCO[C@@H](Cc1ccc(OCC(=O)N(CC)Cc2ccc(OC(F)(F)F)cc2)cc1)C(=O)O` [Example 3]: a half-maximal response (EC50) required 3 nM. The result for `CCCCN(Cc1ccc(C(F)(F)F)cc1)C(=O)COc1ccc(C[C@H](OCC)C(=O)O)cc1` [Example 5] reads 3 nM; that for `CCCCN(Cc1ccc(C(F)(F)F)cc1F)C(=O)COc1ccc(C[C@H](OCC)C(=O)O)cc1` [Example 1, (2S)-3-[4-(2-{Butyl[2-fluoro-4-(trifluoromethyl)benzyl]amino}-2-oxoethoxy)phenyl]-2-ethoxy propanoic Acid], 1 nM. In the case of `CCO[C@@H](Cc1ccc(OCC(=O)N(CC)Cc2ccc(Cl)cc2)cc1)C(=O)O` [Example 2, (2S)-3-(4-{2-[(4-Chlorobenzyl)(ethyl)amino]-2-oxoethoxy}phenyl)-2-ethoxypropanoic Acid], a half-maximal effect (EC50) was put at 3 nM.
